The source of these data is PubChem BioAssay AID330 (DTP/NCI, 2004).

Values joined by “and” are separate entries in the source; they are usually repeats but may differ in a detail not shown here. Equal values may be shown once. Toxic doses and inconclusive results are not listed.

In the test the test system is P388 leukemia ip, CD2F1 mice, survival T/C. Description: NCI In Vivo Anticancer Drug Screen. Data for tumor model P388 Leukemia (intraperitoneal) in CD2F1 (CDF1) mice. The conditions noted are these: endpoint: median survival time, higher = longer survival. A digest of the protocol:
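Mice carrying the transplanted tumor received test compound or vehicle. Survival was recorded in each group, and the value is the treated-group measurement divided by that of the vehicle-treated control group.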

The mark [1] stands for this setting: dose: 12.5 mg/kg/injection, schedule: Q01DX009 (ip), vehicle: saline with Tween-80.
Where [2] appears, read: dose: 25.0 mg/kg/injection, schedule: Q01DX009 (ip), vehicle: saline with Tween-80.
Where [3] appears, read: dose: 50.0 mg/kg/injection, schedule: Q01DX009 (ip), vehicle: saline with Tween-80.
Where [4] appears, read: dose: 50.0 mg/kg/injection, schedule: Q01DX005 (ip), vehicle: saline with Tween-80.
The mark [5] stands for this setting: dose: 100.0 mg/kg/injection, schedule: Q04DX003 (ip), vehicle: saline.
[6] abbreviates: dose: 200.0 mg/kg/injection, schedule: Q04DX003 (ip), vehicle: saline.

With `CC(C)(C)c1ccc(O)c(CNCc2ccccc2)c1`, the T/C is 99 % of control (dose: 25.0 mg/kg/injection, schedule: Q01DX005 (ip), vehicle: Klucel + Tween-80); 97 % of control (dose: 50.0 mg/kg/injection, schedule: Q01DX005 (ip), vehicle: Klucel + Tween-80); 93 % of control (dose: 100.0 mg/kg/injection, schedule: Q01DX005 (ip), vehicle: Klucel + Tween-80); 100 % of control (dose: 200.0 mg/kg/injection, schedule: Q01DX005 (ip), vehicle: Klucel + Tween-80).

In the case of `ClCc1cccc2c(CCl)cccc12`, the T/C by setting is: under setting [1], 113 % of control; under setting [2], 110 % of control and 124 % of control; under setting [3], 121 % of control.

Take `COc1ccc2nc3cc(Cl)ccc3c(NCC3CCCN4CCCCC34)c2c1` (centres undefined): the T/C (dose: 12.5 mg/kg/injection, schedule: Q01DX005 (ip), vehicle: distilled water + Tween-80) is 98 % of control; the T/C (dose: 25.0 mg/kg/injection, schedule: Q01DX005 (ip), vehicle: distilled water + Tween-80) is 103 % of control; the T/C (dose: 50.0 mg/kg/injection, schedule: Q01DX005 (ip), vehicle: distilled water + Tween-80) is 104 % of control; the T/C (dose: 100.0 mg/kg/injection, schedule: Q01DX005 (ip), vehicle: distilled water + Tween-80) was 113 % of control.

For the molecule `Nc1[nH]c(=O)nc2sc3ccccc3c12`, the T/C was 102 % of control under setting [4]; 105 % of control (dose: 100.0 mg/kg/injection, schedule: Q01DX005 (ip), vehicle: saline with Tween-80); 102 % of control (dose: 200.0 mg/kg/injection, schedule: Q01DX005 (ip), vehicle: saline with Tween-80).

Consider `O=c1[nH]cc(O)c(=O)[nH]1`, for which the T/C reads like this: (dose: 167.0 mg/kg/injection, schedule: Q01DX009 (ip), vehicle: saline with Tween-80) 95 % of control; (dose: 267.0 mg/kg/injection, schedule: Q01DX009 (ip), vehicle: saline with Tween-80) 113 % of control; (dose: 400.0 mg/kg/injection, schedule: Q01DX009 (ip), vehicle: saline with Tween-80) 104 % of control; (dose: 600.0 mg/kg/injection, schedule: Q01DX009 (ip), vehicle: saline with Tween-80) 109 % of control.

In the case of `CCCOc1ccc(-c2nc(-c3ccc(N=Cc4ccc(N(CCOS(C)(=O)=O)CCOS(C)(=O)=O)cc4C)cc3)cs2)cc1`, the T/C is 160 % of control (dose: 3.12 mg/kg/injection, schedule: Q01DX009 (ip), vehicle: saline with Tween-80); 180 % of control (dose: 6.25 mg/kg/injection, schedule: Q01DX009 (ip), vehicle: saline with Tween-80); 156 % of control and 166 % of control and 197 % of control under setting [1]; 164 % of control under setting [2]; 110 % of control and 118 % of control under setting [3].

In the case of `CNc1ccc(OC)cc1`, the T/C was 100 % of control (dose: 100.0 mg/kg/injection, schedule: Q04DX003 (ip), vehicle: other); 90 % of control (dose: 200.0 mg/kg/injection, schedule: Q04DX003 (ip), vehicle: other); 109 % of control (dose: 400.0 mg/kg/injection, schedule: Q04DX003 (ip), vehicle: other).

Consider `[N-]=[N+]=Nc1c2c(nc3ccccc13)CCCC2`, for which the T/C by setting is: (dose: 60.0 mg/kg/injection, schedule: Q01DX005 (ip), vehicle: saline with Tween-80) 103 % of control; (dose: 120.0 mg/kg/injection, schedule: Q01DX005 (ip), vehicle: saline with Tween-80) 105 % of control.

In the case of `Cc1ncc(C(N)=O)c(N)n1`, the T/C by setting is: under setting [3], 103 % of control; (dose: 100.0 mg/kg/injection, schedule: Q01DX009 (ip), vehicle: saline with Tween-80) 104 % of control; (dose: 200.0 mg/kg/injection, schedule: Q01DX009 (ip), vehicle: saline with Tween-80) 104 % of control.

For `CN=C(c1ccc(NC(=O)c2cccc(C(=O)Nc3ccc(C(=NC)N(C)C)cc3)c2)cc1)N(C)C`, the T/C (dose: 1.56 mg/kg/injection, schedule: Q01DX005 (ip), vehicle: saline) is 102 % of control; the T/C (dose: 3.12 mg/kg/injection, schedule: Q01DX005 (ip), vehicle: saline) was 102 % of control; the T/C (dose: 6.25 mg/kg/injection, schedule: Q01DX005 (ip), vehicle: saline) was 106 % of control and 96 % of control.

As for `FC(F)(F)C(OCC1CO1)(c1cccc(C(OCC2CO2)(C(F)(F)F)C(F)(F)F)c1)C(F)(F)F` (centres undefined), the T/C (dose: 50.0 mg/kg/injection, schedule: Q01DX009 (ip), vehicle: Klucel (hydroxypropylcellulose) (HPC)) was 99 % of control; the T/C (dose: 100.0 mg/kg/injection, schedule: Q01DX009 (ip), vehicle: Klucel (hydroxypropylcellulose) (HPC)) is 100 % of control; the T/C (dose: 200.0 mg/kg/injection, schedule: Q01DX009 (ip), vehicle: Klucel (hydroxypropylcellulose) (HPC)) was 100 % of control.

Regarding `CC(Cl)CN1CCOC1=O` (centres undefined), the T/C (dose: 12.5 mg/kg/injection, schedule: Q01DX001 (ip), vehicle: saline) is 106 % of control; the T/C (dose: 25.0 mg/kg/injection, schedule: Q01DX001 (ip), vehicle: saline) was 96 % of control; the T/C (dose: 50.0 mg/kg/injection, schedule: Q01DX001 (ip), vehicle: saline) is 105 % of control; the T/C (dose: 100.0 mg/kg/injection, schedule: Q01DX001 (ip), vehicle: saline) was 102 % of control.

For the molecule `Cc1nc(Nc2ccc(F)cc2)c2c(C)c(CC(C)C)[nH]c2n1`, the T/C runs as follows: (dose: 50.0 mg/kg/injection, schedule: Q01DX005 (ip), vehicle: Klucel (hydroxypropylcellulose) (HPC)) 87 % of control; (dose: 100.0 mg/kg/injection, schedule: Q01DX005 (ip), vehicle: Klucel (hydroxypropylcellulose) (HPC)) 91 % of control; (dose: 200.0 mg/kg/injection, schedule: Q01DX005 (ip), vehicle: Klucel (hydroxypropylcellulose) (HPC)) 100 % of control.

For the molecule `C=CCCCC(=O)CCCCO`, the T/C (dose: 50.0 mg/kg/injection, schedule: Q01DX009 (ip), vehicle: other) is 95 % of control; the T/C (dose: 100.0 mg/kg/injection, schedule: Q01DX009 (ip), vehicle: other) was 107 % of control; the T/C (dose: 200.0 mg/kg/injection, schedule: Q01DX009 (ip), vehicle: other) was 101 % of control.

Regarding `CC(=O)OCC/C(SC(C)=O)=C(/C)N(C=O)Cc1cnc(C)nc1N`, the T/C is, setting by setting: (dose: 50.0 mg/kg/injection, schedule: Q01DX009 (ip), vehicle: saline) 98 % of control; (dose: 100.0 mg/kg/injection, schedule: Q01DX009 (ip), vehicle: saline) 94 % of control; (dose: 200.0 mg/kg/injection, schedule: Q01DX009 (ip), vehicle: saline) 100 % of control.

`CN1CCC(OC(=O)c2ccco2)CC1`: the T/C by setting is: (dose: 50.0 mg/kg/injection, schedule: Q04DX003 (ip), vehicle: saline) 101 % of control; under setting [5], 100 % of control; under setting [6], 99 % of control.

Turning to `CCOC(=O)NC(NC(=O)OCC)c1ccncc1`, the T/C is 94 % of control under setting [5]; 98 % of control under setting [6]; 99 % of control (dose: 400.0 mg/kg/injection, schedule: Q04DX003 (ip), vehicle: saline).

With `[CH3][Ge]([CH3])([CH3])[N]=S=[N][Ge]([CH3])([CH3])[CH3]`, the T/C is 105 % of control (dose: 12.5 mg/kg/injection, schedule: Q01DX005 (ip), vehicle: saline with Tween-80); 100 % of control (dose: 25.0 mg/kg/injection, schedule: Q01DX005 (ip), vehicle: saline with Tween-80); 99 % of control and 100 % of control under setting [4].

As for `CC1=CCC2C(C)(C)CCCC2(C)C1COC1OC(OCC2C(C)=CCC3C(C)(C)CCCC23C)C2C1=CCC1C(C)(C)CCCC21C` (centres undefined), the T/C runs as follows: (dose: 15.0 mg/kg/injection, schedule: Q01DX009 (ip), vehicle: Klucel (hydroxypropylcellulose) (HPC)) 96 % of control; (dose: 30.0 mg/kg/injection, schedule: Q01DX009 (ip), vehicle: Klucel (hydroxypropylcellulose) (HPC)) 102 % of control; (dose: 60.0 mg/kg/injection, schedule: Q01DX009 (ip), vehicle: Klucel (hydroxypropylcellulose) (HPC)) 93 % of control; (dose: 120.0 mg/kg/injection, schedule: Q01DX009 (ip), vehicle: Klucel (hydroxypropylcellulose) (HPC)) 94 % of control.

For `CC(=O)OC(C)C(C)[N+](C)(C)C` (centres undefined), the T/C (dose: 100.0 mg/kg/injection, schedule: Q04DX002 (ip), vehicle: saline) was 94 % of control.

Turning to `CCNC(=O)OCc1c(-c2ccccc2)nc2n1CCS2`, the T/C reads like this: (dose: 6.25 mg/kg/injection, schedule: Q01DX001 (ip), vehicle: Klucel (hydroxypropylcellulose) (HPC)) 104 % of control; (dose: 12.5 mg/kg/injection, schedule: Q01DX001 (ip), vehicle: Klucel (hydroxypropylcellulose) (HPC)) 98 % of control and 115 % of control; (dose: 25.0 mg/kg/injection, schedule: Q01DX001 (ip), vehicle: Klucel (hydroxypropylcellulose) (HPC)) 114 % of control and 93 % of control; (dose: 50.0 mg/kg/injection, schedule: Q01DX001 (ip), vehicle: Klucel (hydroxypropylcellulose) (HPC)) 101 % of control and 106 % of control; (dose: 75.0 mg/kg/injection, schedule: Q01DX001 (ip), vehicle: Klucel (hydroxypropylcellulose) (HPC)) 108 % of control.
